Experimental data reported in US8119563B2, “N-substituted azacycles” (FMC Corporation, priority 2003, dated 2012).

Tested on: tobacco budworm (Heliothis virescens [Fabricius])
Assay: surface-treated diet test, insecticidal activity against tobacco budworm
Assay type: in vivo
Set-up: mortality: concentration or dose not given beside the values
Details: 0.25 millimoles of candidate insecticide on the surface of the diet, second instar larvae, five-day exposure; for Percent Mortality / mortality: compared to total number of insects infested; for Percent Growth Inhibition / pest or weed control at 0.25 mmol/well: inhibition of insect weight relative to untreated controls; for mortality / pest or weed control at 0.25 mmol/well: Heliothis virescens, 120 h; for mortality: read-out: Percent Mortality; for pest or weed control at 0.25 mmol/well: read-out: Percent Growth Inhibition
How it was run: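 Second-instar larvae (~5 mg) were held five days at 25° C and 60% RH on artificial diet whose surface carried dried compound (0.25 millimolar standard rate; DMSO serial dilutions for rate series, six replicates each). Readouts: mortality and weight inhibition relative to DMSO-treated controls.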

| Structure (SMILES) | Percent Mortality [%] | Percent Growth Inhibition [%] | mortality [%] | pest or weed control at 0.25 mmol/well [%] |
| --- | --- | --- | --- | --- |
| [O-][N+]1(Cc2ccc(OCC3CC3)cc2)CCC(O)(C(c2ccc(C(F)(F)F)cc2)c2ccc(C(F)(F)F)cc2)CC1 (stereo not drawn) [Compound 383] | 100 | 100 | – | – |
| [O-][N+]1(Cc2ccc(Oc3ccccn3)cc2)CCC(O)(C(c2ccc(OC(F)(F)F)cc2)c2ccccc2Cl)CC1 (stereo not drawn) [Compound 459] | 100 | 100 | – | – |
| OC1(C(c2ccc(OC(F)(F)F)cc2)c2cc(Cl)cc(Cl)c2)CCN(Cc2ccc(Oc3ccccn3)cc2)CC1 (stereo not drawn) [Compound 442] | 100 | 100 | – | – |
| N#Cc1cccnc1Oc1ccc(C[N+]2([O-])CCC(O)(C(c3ccc(OC(F)(F)F)cc3)c3ccc(OC(F)(F)F)cc3)CC2)cc1 (stereo not drawn) [Compound 359] | 100 | 100 | – | – |
| OC1(C(c2ccc(C(F)(F)F)cc2)c2ccc(Cl)cc2Cl)CCN(Cc2ccc(Oc3ncccn3)cc2)CC1 (stereo not drawn) [Compound 15] | 100 | 100 | – | – |
| NC(=O)CON=Cc1ccc(C[N+]2([O-])CCC(O)(C(c3ccc(OC(F)(F)F)cc3)c3ccc(OC(F)(F)F)cc3)CC2)cc1 (stereo not drawn) [Compound 410] | 100 | 100 | – | – |
| CCn1nnc(-c2ccc(CN3CCC(O)(C(c4ccc(Cl)c(Cl)c4)c4ccc(Cl)c(Cl)c4)CC3)cc2)n1 [Compound 26] | 100 | 100 | – | – |
| OC1(C(c2ccc(OC(F)(F)F)cc2)c2ccc(C(F)(F)F)cc2)CCN(Cc2ccc(Oc3ccccn3)cc2)CC1 (stereo not drawn) [Compound 265] | 100 | 100 | – | – |
| [O-][N+]1(Cc2ccc(Oc3ncccn3)cc2)CCC(O)(C(c2ccc(C(F)(F)F)cc2)c2ccc(C(F)(F)F)cc2)CC1 (stereo not drawn) [Compound 120] | 100 | 100 | – | – |
| CCON=Cc1ccc(C(c2ccc(OC(F)(F)F)cc2)C2(O)CCN(Cc3ccc(Oc4ccccn4)cc3)CC2)cc1 (stereo not drawn) [Compound 440] | 100 | 100 | – | – |
| [O-][N+]1(Cc2ccc(Oc3ccccn3)cc2)CCC(O)(C(c2ccc(OC(F)(F)F)cc2)c2ccc(OC(F)(F)F)cc2)CC1 (stereo not drawn) [Compound 117, 4-{bis[4-(trifluoromethoxy)phenyl]methyl}-4-hydroxy-1-[(4-(2-pyridyloxy)phenyl)methyl]piperidin-1-oxide] | – | – | 100 | 100 |
| COCCOCCON=Cc1ccc(CN2CCC(O)(C(c3ccc(OC(F)(F)F)cc3)c3ccc(OC(F)(F)F)cc3)CC2)cc1 [Compound 258] | 100 | 100 | – | – |
| CC(=O)OC(c1ccc(Cl)cc1)c1ccc(CN2CCC(O)(C(c3ccc(OC(F)(F)F)cc3)c3ccc(OC(F)(F)F)cc3)CC2)cc1 (racemic) [Compound 289] | 100 | 100 | – | – |
| CCCOc1ccc(C[N+]2([O-])CCC(O)(C(O)(c3ccc(C(F)(F)F)cc3)c3ccc(C(F)(F)F)cc3)CC2)cc1 (stereo not drawn) [Compound 121] | 100 | 100 | – | – |
| CCOC(=O)COc1ccc(CN2CCC(O)(C(c3ccc(C(F)(F)F)cc3)c3ccc(C(F)(F)F)cc3)CC2)cc1 [Compound 291] | 17 | 100 | – | – |
| [O-][N+]1(Cc2ccc(Oc3ccccn3)cc2)CCC(O)(C(c2ccc(F)cc2)c2ccc(OC(F)(F)F)cc2)CC1 (stereo not drawn) [Compound 346] | 100 | 100 | – | – |
| [O-][N+]1(Cc2ccc(Oc3ncccn3)cc2)CCC(O)(C(c2ccc(OC(F)(F)F)cc2)c2ccc(OC(F)(F)F)cc2)CC1 (stereo not drawn) [Compound 112, 4-{bis[4-(trifluoromethoxy)phenyl]methyl}-4-hydroxy-1-[(4-pyrimidin-2-yloxyphenyl)methyl]piperidin-1-oxide] | – | – | 100 | 100 |
| CCn1nnc(-c2ccc(CN3CCC(O)(C(c4cccc(Cl)c4)c4cccc(Cl)c4)CC3)cc2)n1 [Compound 24] | 0 | 98 | – | – |
